The values below come from patent publication US20240327829A1, “CONJUGATE OF SAPONIN, OLIGONUCLEOTIDE AND GALNAC” (priority 2020, published 2024).

Read-outs that look alike come from different tables or passages of the source. [BNA] = bridged nucleic acid (BNA) nucleotide, BNA type not stated for this oligo; [BNANC] = BNA^NC (2'-O,4'-aminoethylene bridged) nucleotide; {C6SH} = thiol C6 linker; d = 2'-deoxy (DNA)

Data set [1] relates to primary human hepatocytes. The experiment in a line: Cell viability of primary human hepatocytes. In kind it is cell-based. Conditions: combined with 10 pM CD71-saporin. How it is done: Briefly, the MTS solution was diluted 20× in DMEM without phenol red (PAN-Biotech GmbH) supplemented with 10% FBS. The cells were washed once with 200 μL/PBS well, after which 100 μL diluted MTS solution was added/well. The plate was incubated for approximately 20-30 minutes at 37° C.

In data set [2] the test system is HSP27 gene expression in Huh7 cells. Nature of the data set: HSP27 gene silencing (gene expression analysis, qPCR). Conditions: + fixed 4000 nM SO1861-EMCH. In kind it is cell-based, human. The text has this:
(§1) RNA from cells was isolated and analysed according to standard protocols (Biorad). qPCR primers that were used are indicated in Table A2.
(In general: Real-time PCR tracks product formation cycle by cycle.)

In data set [3] the test system is HSP27 gene expression in HepG2 cells. The data set is described as above. The class given is cell-based, human. Conditions: + fixed 4000 nM SO1861-EMCH.
From the text: as §1

A further data set has as its system apoB protein. The experiment in a line: Serum apoB protein analysis (ELISA). In kind it is in vivo, C57BL/6J mice. The conditions noted are these: Study B; 72 hrs; 2 mg/kg iv; vehicle 156 μg/ml. On the procedure:
• i. Dose administration and in-life phase. Per group, 8 C57BL/6J male mice for treatment groups (in Study A, 14 mice in vehicle control group), approximately 6-7 weeks at arrival and 8-9 weeks at dosing, were dosed. The compounds, formulated in PBS or PBS alone (vehicle) according to Table A5 and Table A6, were dosed at 5 ml/kg in the tail vain (intravenously, iv), with dose volumes corresponding to the individual bodyweights. […] Animals were weighed weekly and clinical observations were performed 2-3 times daily within the first 48 hrs, and at least once daily thereafter until study end. • ii. Sampling of serum, liver, and kidney tissue. […] At the relevant inter-study post-dose timepoints, 3 animals per timepoint per treatment group (6 animals in the vehicle control group in Study A) were sacrificed to collect terminal bleeds and collect relevant organs, such as liver and kidney tissues for further analyses. at end of study, the remaining 2 animals (4 in the control group in Study A) per group were sacrificed. One half of the liver and one kidney was frozen and used for tissue RNA analysis.
ApoB protein levels in mouse serum was determined using an ApoB ELISA (ab230932, Abcam, Cambridge, UK), according to the manufacturer's instruction.
Background: An ELISA detects its analyte on a solid surface through an enzyme-linked reagent.

A further data set deals with apoB RNA in liver tissue. The experiment in a line: ApoB expression analysis in liver tissue (qRT-PCR). In kind it is in vivo, C57BL/6J mice. Conditions: for apoB RNA levels in liver, reduction compared to vehicle: Study A. On the procedure: (§2) • i. Dose administration and in-life phase. Per group, 8 C57BL/6J male mice for treatment groups (in Study A, 14 mice in vehicle control group), approximately 6-7 weeks at arrival and 8-9 weeks at dosing, were dosed. The compounds, formulated in PBS or PBS alone (vehicle) according to Table A5 and Table A6, were dosed at 5 ml/kg in the tail vain (intravenously, iv), with dose volumes corresponding to the individual bodyweights. Where applicable, trivalent (GalNAc)3-SO1861 (EMCH) was co-administered at 5 ml/kg in the tail vain (iv) right after the trivalent GalNAc-ApoB conjugate. Animals were weighed weekly and clinical observations were performed 2-3 times daily within the first 48 hrs, and at least once daily thereafter until study end. • ii. Sampling of serum, liver, and kidney tissue. […] At the relevant inter-study post-dose timepoints, 3 animals per timepoint per treatment group (6 animals in the vehicle control group in Study A) were sacrificed to collect terminal bleeds and collect relevant organs, such as liver and kidney tissues for further analyses. at end of study, the remaining 2 animals (4 in the control group in Study A) per group were sacrificed. One half of the liver and one kidney was frozen and used for tissue RNA analysis.
The mRNA was isolated from frozen liver tissue using TRzol® Reagent (Thermo Scientific) according to the manufacturer's instruction. Conversion into cDNA was performed using Script™ cDNA Synthesis Kit (BioRad). ApoB expression levels and levels of specific liver housekeeping genes were determined using quantitative real-time PCR assays (qRT-PCR) using iTaq™ Universal SYBRO Green Supermix (BioRad) and the Light Cycler 480 (Roche Diagnostics, Rotkreuz, Switzerland) with specific DNA primers, listed in Table A4 (Study A) and Table A7 (Study B), respectively. Analysis was done by the ΔCt method to determine apoB expression relative to 2 liver-specific housekeeping control mRNAs. Each analysis reaction was performed in triplicate.

For data set [4], the system named is apoB mRNA in primary human hepatocytes. Nature of the data set: apoB mRNA expression analysis in primary human hepatocytes. The class given is cell-based. The conditions noted are these: read-out: apoB RNA levels IC50. On the procedure: as §1
(§3) RNA isolation and gene expression analysis from primary mouse and human hepatocytes RNA from cells was isolated using TRI Reagent® Solution (Thermo Scientific) according to the manufacturer's instruction. Conversion into cDNA was performed using iScript™ cDNA Synthesis Kit (BioRad) using standard protocols. ApoB expression levels and levels of specific hepatocyte housekeeping genes were determined using quantitative real-time PCR assays (qRT-PCR) using iTaq™ Universal SYBR® Green Supermix (BioRad) and the Light Cycler 480 (Roche Diagnostics, Rotkreuz, Switzerland) with specific DNA primers, listed in Table A4 (study A) and Table A7 (study B), respectively. Analysis was done by the […] to determine apoB expression relative to 2 hepatocyte-specific housekeeping control mRNAs. Each analysis reaction was performed in triplicate.

The next data set relates to LDL-cholesterol. The experiment in a line: Serum LDL-cholesterol (LDL-C) analysis. In kind it is in vivo, C57BL/6J mice. Conditions: for serum LDL-C reduction compared to vehicle: Study A. How it is done: as §2
LDL-cholesterol was measured in mouse serum, using an LDL-cholesterol specific two-step AU480 assay kit, respectively, from Beckman Coulter, with a photometric measurement according to the manufacturer's instructions.

The nature of data set [5]: In vivo tolerability (clinical observations, body weight). The conditions noted are these: Study A; doses and regimens of Table A5. Set-up: species or system C57BL/6J mice. On the procedure:
as §2

Data set [6] has as its system apoB gene expression in Huh7 cells. The experiment in a line: ApoB gene silencing (gene expression analysis). In kind it is cell-based, human. The conditions noted are these: for IC50: + fixed 4000 nM trivalent-GalNAc-L-SO1861 (DAR1). How it is done:
as §1, §3

Data set [7] concerns apoB protein expression in Huh7 cells. Nature of the data set: apoB protein expression in Huh7 hepatocyte cell line. In kind it is cell-based, human.
In data set [8] the test system is apoB gene expression in HepG2 cells. Nature of the data set: ApoB gene silencing (gene expression analysis). In kind it is cell-based, human. How it is done:
as §1, §3

The nature of data set [9]: Endosomal escape enhancing activity of saponin. Conditions: compared with SO1861.
Setting [10] is: + 300 nM TrivalentGalNAc-SPT001.
The mark [11] stands for this setting: + fixed 4000 nM trivalent-GalNAc-L-SO1861 (DAR1).

Consider `CC(=O)OC1C(C)OC(OC2C(C)OC(OC(=O)[C@]34CCC(C)(C)CC3C3=CCC5[C@@]6(C)CC[C@H](OC7OC(C(=O)O)C(O)C(OC8OCC(O)C(O)C8O)C7OC7OC(CO)C(O)C(O)C7O)[C@@](C)(/C=N/NC(=O)CCCCCN7C(=O)C=CC7=O)C6CC[C@@]5(C)[C@]3(C)C[C@H]4O)C(OC3OC(C)C(OC4OCC(O)C(OC5OC(CO)C(O)C(O)C5O)C4O)C(O)C3O)C2O)C(O)C1OC1OCC(O)C(O)C1O` (some centres unmarked) [SO1861-EMCH], for which the “increase of potency (factor) when cell viability of liver cells is considered” value in [1] is given as roughly 10.

Turning to “trivalent-GalNAc-L-HSP27BNA: HSP27BNA (SEQ ID NO: 1) conjugated to trivalent-GalNAc, labile conjugation (GGCACAGCCAGTGGCG; sugars from the 5' end [BNANC]3 d10 [BNANC]3, backbone and methylation of C not given here; further chemistry not fully specified)”, the IC50 in data set [2] came to 3 nM; in data set [3] it was 0.1 nM.

As to “ApoB #02 BNA: BNA^NC oligonucleotide 5′-GCattggtatTCA-3′ [SEQ ID NO: 12], fully phosphorothioated, murine and human sequence-compatible, apoB-targeting (GCATTGGTATTCA; sugars from the 5' end [BNANC]2 d8 [BNANC]3, all phosphorothioate, 5' {C6SH}, methylation of C not given here)”, in the data set on apoB protein, the “serum apoB protein level” value was determined as 57 µg/mL. The “apoB RNA levels in liver, reduction compared to vehicle” value is “not noticeably reduced” with apoB RNA in liver tissue (24 hrs, 0.1 mg/kg iv); roughly 15% with apoB RNA in liver tissue (24 hrs, 1 mg/kg iv); roughly 21% in the data set with apoB RNA in liver tissue (24 hrs, 2 mg/kg iv); 39% with apoB RNA in liver tissue (72 hrs, 2 mg/kg iv); 30% in the data set on apoB RNA in liver tissue (336 hrs, 2 mg/kg iv). The “apoB RNA levels in liver, % of vehicle control” value with apoB RNA in liver tissue (Study B, 72 hrs, 2 mg/kg iv) is given as 53%. Further, the IC50 in [4] (relative ApoB #02 BNA concentration, no transfection agent) stood at 400 nM; in data set [4] (transfection with RNAi-MAX), 8 nM. Moreover, the “serum LDL-C reduction compared to vehicle” value is recorded as “not noticeably reduced” in the data set with LDL-cholesterol (24 hrs, 0.1 mg/kg iv); “not noticeably reduced” with LDL-cholesterol (24 hrs, 1 mg/kg iv); “not noticeably reduced” with LDL-cholesterol (24 hrs, 2 mg/kg iv); roughly 50% in the data set with LDL-cholesterol (72 hrs, 2 mg/kg iv); roughly 40% with LDL-cholesterol (336 hrs, 2 mg/kg iv). Moreover, the “serum LDL-C level” value with LDL-cholesterol (Study B, 72 hrs, 2 mg/kg iv, vehicle 4 mg/dl) came to 2 mg/dL. In addition, in [5], the “tolerability” value is on record as “well tolerated”.

“(GalNAc)3-ApoB: trivalent GalNAc conjugated with ApoB antisense BNA oligonucleotide (SEQ ID NO: 2); linker type not stated (GCCTCAGTCTGCTTCGCACC; sugars from the 5' end [BNA]5 d10 [BNA]5, backbone and methylation of C not given here; further chemistry not fully specified)”: the “lowering of apoB mRNA expression” value in data set [6] (setting [10]) is “neither TrivalentGalNAc-ApoBBNA, nor the combination of TrivalentGalNAc-ApoBBNA and TrivalentGalNAc-SPT001 induce lowering”; in data set [6] (alone) it was “neither TrivalentGalNAc-ApoBBNA, nor the combination of TrivalentGalNAc-ApoBBNA and TrivalentGalNAc-SPT001 induce lowering”. The “lowering of apoB protein expression” value in data set [7] (setting [10]) is “neitherTrivalentGalNAc-ApoBBNA, northe combination ofTrivalentGalNAc-ApoBBNA and TrivalentGalNAc-SPT001 induced marked lowering”; in data set [7] (alone), “neitherTrivalentGalNAc-ApoBBNA, northe combination ofTrivalentGalNAc-ApoBBNA and TrivalentGalNAc-SPT001 induced marked lowering”.

Turning to “trivalent-GalNAc-S-HSP27BNA: HSP27BNA (SEQ ID NO: 1) conjugated to trivalent-GalNAc, stable conjugation (GGCACAGCCAGTGGCG; sugars from the 5' end [BNANC]3 d10 [BNANC]3, backbone and methylation of C not given here; further chemistry not fully specified)”, the values for the half-inhibitory concentration (IC50) in [2] and in data set [3] were 3 nM and 0.1 nM, respectively.

Turning to “trivalent-GalNAc-L-ApoBBNA: ApoBBNA (SEQ ID NO: 2) conjugated to trivalent-GalNAc, labile conjugation (GCCTCAGTCTGCTTCGCACC; sugars from the 5' end [BNA]5 d10 [BNA]5, backbone and methylation of C not given here; further chemistry not fully specified)”, the IC50 in data set [6] was found to be 700 nM; in data set [8] (+ fixed 4000 nM SO1861-EMCH) it was 10 nM; in data set [8] (setting [11]), 50 nM.

Regarding `CC(=O)OC1C(C)OC(OC2C(C)OC(OC(=O)[C@]34CCC(C)(C)CC3C3=CCC5[C@@]6(C)CC[C@H](OC7OC(C(=O)O)C(O)C(OC8OCC(O)C(O)C8O)C7OC7OC(CO)C(O)C(O)C7O)[C@@](C)(C=O)C6CC[C@@]5(C)[C@]3(C)C[C@H]4O)C(OC3OC(C)C(OC4OCC(O)C(OC5OCC(O)C(O)C5O)C4O)C(OC4OCC(O)C(O)C4O)C3O)C2O)C(O)C1O` (some centres unmarked) [SO1832], in data set [9], the “endosomal escape enhancing activity towards an oligonucleotide (or protein toxin) in the endosome” value is given as “about equally active as SO1861”.

Consider “trivalent-GalNAc-S-ApoBBNA: ApoBBNA (SEQ ID NO: 2) conjugated to trivalent-GalNAc, stable conjugation (GCCTCAGTCTGCTTCGCACC; sugars from the 5' end [BNA]5 d10 [BNA]5, backbone and methylation of C not given here; further chemistry not fully specified)”, for which the half-maximal inhibitory concentration (IC50) worked out at 700 nM in [6], 10 nM in data set [8] (+ fixed 4000 nM SO1861-EMCH) and 50 nM in [8] (setting [11]).

What is called IC50 is the concentration that gives 50% inhibition.
